Data published in publication PMC8012336, “An automated and high-throughput-screening compatible pluripotent stem cell-based test platform for developmental and reproductive toxicity assessment of small molecule compounds” (Cell Biology and Toxicology, 2020).
≈ marks a conversion by molar mass, not a printed value. Read-outs that look alike come from different tables or passages of the source.

Legend:
mESC-D3 = test: Manual CellTiter-Glo luminescent cell viability assay (7 d or 5 d); format: cell-based, mouse; conditions: in brackets the two individual experiments
Procedure: (§1) 96-well cell culture plates were coated with gelatin (0.1%) before plating mESC-D3. All peripheral wells of the assay plate were filled with 200 μl growth media. In order to assess compound toxicity on mESC-D3 and NIH/3T3 cells, cell suspensions of NIH/3T3, and mESC-D3 were prepared in growth media (1 × 10^4 cells/ml) and were transferred to all remaining wells (50 μl/well). A 7-point dilution series in growth media was prepared for each test compound and was transferred to the assay plate 2 h after cell seeding (150 μl/well). Afterward, the cells were incubated in a humidified atmosphere at 37 °C and 5% CO2. Three and 5 days after seeding the cell supernatant was replaced by freshly prepared compound solution (200 μl/well). […] The assay plate was placed on a shaker for 1 min and after another 10 min incubation at room temperature in the dark the luminescence signal was detected on a plate reader.
(§2) Toxicity data from the MTT and CellTiter-Glo Assay was normalized against the vehicle control (100% viability) and plotted against the logarithmic compound concentration.

[1] = tested on: HDFf (human dermal fibroblasts of fetal origin); test: Manual human EST cytotoxicity assay, MTT, 5 d
Procedure: (§3) The cytotoxicity assessment with a reduced assay time of 5 days combined with either NADH- or ATP-based detection was also carried out with human induced pluripotent stem cells (hiPSCs). […] Furthermore, differences in the cytotoxicity effects between the hiPSCs and HDFfs were more pronounced than in the mouse cells. Similar to the cytotoxicity-based assay the overall variance in the data is reduced when viability data was obtained by an ATP-based read-out.
(§4) The MTT cell viability assay was performed as described (Seiler and Spielmann [2011]) with modifications. In brief, 96-well cell culture plates were coated with gelatin (0.1%) before plating mESC-D3. All peripheral wells of the assay plate were filled with 200 μl growth media (“blank”). Afterward, NIH/3T3 and mESC-D3 were plated in growth media (1 × 10^4 cells/ml, 50 μl/well). […] Vehicle (PBS) and positive control (5-fluorouracil) wells were also included on all assay plates. Three and 5 days after seeding the cell supernatant was replaced by freshly prepared compound solution (200 μl/well). Seven days after seeding the cell viability was detected. Therefore, the cell supernatant was aspirated from all wells, MTT solution (5 mg/ml) was added (20 μl/well) and the assay plate was incubated for 2 h at 37 °C and 5% CO2 in a humidified atmosphere. Afterward, all liquid was removed from the wells and MTT desorb solution (0.7% SDS in 2-propanol (Carl Roth, Cat. No. 9866.5), pre-warmed to 37 °C) was dispensed (130 μl/well). The assay plate was placed on a shaker for 15 min. Remaining precipitates were suspended by pipetting up and down with a multichannel pipette before measuring the absorption at 570 nm on a microtiter plate reader using 630 nm as a reference wavelength.
(§5) Figure S1: Step-wise evolution of the cytotoxicity assay towards the use of human cell lines. Related to Figure 2. Cytotoxicity assays were carried out with two compound sets on hiPSC line ZIPi013-E and HDFf, from which they were derived. […] A) 5 day MTT assay and manual handling. B) As in A), but using CellTiter-Glo® viability assay. All points in the graph represent the mean of 6 individual data points, including the standard error.

hiPSC line ZIPi013-E = test: Manual human EST cytotoxicity assay, MTT, 5 d
Procedure: as §3, §4, §5

[2] = Manual CellTiter-Glo luminescent cell viability assay (7 d or 5 d); format: cell-based, mouse; conditions: mouse, in brackets the two individual experiments
Procedure: as §1, §2

Row | Compound | Cytotoxicity assay CTG, 5 d IC50 mESC-D3 (mESC-D3; 5 d) | Cytotoxicity assay CTG, 7 d IC50 mESC-D3 (mESC-D3; 7 d) | Cytotoxicity assay MTT, 5 d IC50 HDFf [1] [µg/mL] | Cytotoxicity assay MTT, 5 d IC50 ZIPi013-E (hiPSC line ZIPi013-E) [µg/mL] | IC50 at 5 d ([2]; NIH/3T3 cells, read-out: Cytotoxicity assay CTG, 5 d IC50 NIH/3T3) [µg/mL] | IC50 at 7 d ([2]; NIH/3T3 cells, read-out: Cytotoxicity assay CTG, 7 d IC50 NIH/ 3T3) [µg/mL] | IC50 at 5 d ([2]; mESC-D3 cells, read-out: Cytotoxicity assay CTG, 5 d IC50 mESC-D3) [µg/mL] | IC50 at 7 d ([2]; mESC-D3 cells, read-out: Cytotoxicity assay CTG, 7 d IC50 mESC-D3) [µg/mL]
1 | NC(=O)NO [Hydroxyurea, hydroxyurea] | 3.19 (4.12; 2.26) µg/ml | 2.37 (2.28; 2.46) µg/ml | 4.005 | 0.3326 | – | – | – | –
2 | O=C1NS(=O)(=O)c2ccccc21 [Saccharin, saccharin] | – | – | – | – | > 1000 | > 1000 | 464 (≈ 2.53 mM) | > 1000
